{"source": "patent US8216783B2", "about": "“Over-expression and mutation of a tyrosine kinase receptor FGFR4 in tumors” (The United States of America, as represented by the …, priority 2008, dated 2012)", "key": {"[1]": {"system": "RD", "assay": "IC50 of PD173074 for killing human RMS cell lines (RT-CES cell growth monitoring)", "type": "cell-based", "details": "RD cell line", "method": "(§1) Briefly human RMS cell lines were seeded in the 96 well plate device at 5000-20,000 cells per well. […] Cell growth was monitored and IC50 values were calculated by Cell Office® (ACEA Biosciences, San Diego, Calif.).\n(§2) Expression level of FGFR4 mRNA for each cell line was determined by real-time PCR (FIG. 10)."}, "[2]": {"system": "RH28", "assay": "IC50 of PD173074 for killing human RMS cell lines (RT-CES cell growth monitoring)", "type": "cell-based", "details": "RH28 cell line", "method": "as §1, §2"}, "[3]": {"system": "RH30", "assay": "IC50 of PD173074 for killing human RMS cell lines (RT-CES cell growth monitoring)", "type": "cell-based", "details": "RH30 cell line", "method": "as §1, §2"}, "[4]": {"system": "RH36", "assay": "IC50 of PD173074 for killing human RMS cell lines (RT-CES cell growth monitoring)", "type": "cell-based", "details": "RH36 cell line", "method": "as §1, §2"}, "[5]": {"system": "RH41", "assay": "IC50 of PD173074 for killing human RMS cell lines (RT-CES cell growth monitoring)", "type": "cell-based", "details": "RH41 cell line", "method": "as §1, §2"}, "[6]": {"system": "RMS772 cells expressing vector only", "assay": "Percent cell survival of transduced RMS772 cell lines with PD173074", "type": "cell-based", "details": "Mus musculus; RMS772 vector control, 48 hours of treatment"}, "[7]": {"system": "RMS772 cells expressing wild type FGFR4", "assay": "Percent cell survival of transduced RMS772 cell lines with PD173074", "type": "cell-based", "details": "Mus musculus; RMS772 wild type FGFR4, 48 hours of treatment"}, "[8]": {"system": "RMS772 cells expressing FGFR4 N535K (K535)", "assay": "Percent cell survival of transduced RMS772 cell lines with PD173074", "type": "cell-based", "details": "Mus musculus; RMS772 K535, 48 hours of treatment"}, "[9]": {"system": "RMS772 cells expressing FGFR4 V550E (E550)", "assay": "Percent cell survival of transduced RMS772 cell lines with PD173074", "type": "cell-based", "details": "Mus musculus; RMS772 E550, 48 hours of treatment"}, "[10]": {"system": "RMS119 cells expressing FGFR4 N535K or V550E", "assay": "Cell cycle assay (BrdU/7-AAD flow cytometry), apoptosis as subG1 fraction", "type": "cell-based, mouse", "details": "5 uM for 24 hours", "method": "(§3) The effect of […] in RMS119 and RMS772 transfectants was determined using cell cycle assays. […] Cells were then pulsed with BrdU for 40 minutes, and then fixed, permeabilized, and treated with DNase, and followed by staining with mAb (BD Biosciences, Franklin Lakes, N.J.) against BrdU and with 7-AAD (BD Biosciences, Franklin Lakes, N.J.) respectively. Flow cytometry was used to analyze the cell cycle parameters.\n(§4) Apoptosis was assessed by determining the fraction of cells in the subG1 stage of the cell cycle. There were no differences in cell cycle parameters of RMS772 cells expressing TK domain mutants cultured in medium containing 10% FBS compared to vector or wild type FGFR4 (FIG. 9A)."}, "[11]": {"system": "RMS772 cells expressing FGFR4 TK domain mutations N535K or V550E", "assay": "Cell cycle assay (BrdU/7-AAD flow cytometry), apoptosis as subG1 fraction", "type": "cell-based, mouse", "details": "5 uM for 24 hours", "method": "as §3, §4"}, "[12]": {"system": "RMS772 cells expressing FGFR4 N535K (K535) or V550E (E550)", "assay": "Activated caspase 3 positive cells in RMS772 transductants", "type": "cell-based, mouse", "details": "both mutant RMS772 cell lines, 20 μM, 24 hour treatment"}, "[13]": {"system": "RH30 TRB H11.5 cells", "assay": "In vitro growth of RH30 TRB H11.5 cells with or without dox", "type": "cell-based, human", "details": "RH30 TRB H11.5, 25 nM dox, 13 days, P=0.0021", "method": "FIG. 13B is a plot of RH30 TRB H11.5 cell growth with or without 25 nM dox for 120 hours.\nFIG. 13C is a plot of RH30TRB H11.5 cell number 13 days after treatment with or without 25 nM dox.\nHuman rhabdomyosarcoma cell line RH30 was retrovirally transduced with vectors containing tetracycline repressor protein and ecotropic receptor. A tetracycline inducible shRNA construct targeting FGFR4 ([…], SEQ ID NO: 44) was used to transduce these RH30 cells as described previously (Ngo et al. Nature 441:106-110, 2006). Transduced RH30 cells were then subcloned. The subclone with the highest FGFR4 knockdown in the presence of doxycycline (dox) was used for in vitro and in vivo studies. The subclone chosen was designated as RH30 TRB H11.5 and was further transduced with a retroviral vector encoding luciferase. RH30 TRB H11.5 cells treated with or without 25 ng/ml doxycycline for 48 hours were harvested for Western blot for FGFR4 expression."}, "[14]": {"system": "RMS772 cells expressing FGFR4 N535K or V550E", "assay": "Relative cell number of RMS772 transductants treated with imatinib", "type": "cell-based, mouse", "details": "10 μM, 24 hours", "method": "To determine the sensitivity of FGFR4 mutants (N535K and V550E) to imatinib, RMS772 transductants were treated with imatinib (ranging from 0 μM to 40 μM). After 24 hours, relative cell number (normalized with control) was plotted against imatinib dose."}, "[15]": {"details": "24 hours, read-out: IC50 for killing, 24 hours"}, "[16]": {"details": "48 hours, read-out: IC50 for killing, 48 hours"}, "[17]": {"details": "72 hours, read-out: IC50 for killing, 72 hours"}}, "note": "“Also recorded” adds a separate entry of the source. Where two headings read alike, the source gives them in different places."}
{"smiles": "CCN(CC)CCCCNc1ncc2cc(-c3cc(OC)cc(OC)c3)c(NC(=O)NC(C)(C)C)nc2n1", "note": "[PD173074]", "values": [{"measurement": "IC50", "setting": "[1]; [15]", "result": 57.1, "unit": "µM"}, {"measurement": "IC50", "setting": "[1]; [16]", "result": 29.7, "unit": "µM"}, {"measurement": "IC50", "setting": "[1]; [17]", "result": 20.2, "unit": "µM"}, {"measurement": "IC50", "setting": "[2]; [15]", "result": 2.22, "unit": "µM"}, {"measurement": "IC50", "setting": "[2]; [16]", "result": 0.66, "unit": "µM"}, {"measurement": "IC50", "setting": "[2]; [17]", "result": 0.5, "unit": "µM"}, {"measurement": "IC50", "setting": "[3]; [15]", "result": 10, "unit": "µM"}, {"measurement": "IC50", "setting": "[3]; [16]", "result": 8.32, "unit": "µM"}, {"measurement": "IC50", "setting": "[3]; [17]", "result": 8.11, "unit": "µM"}, {"measurement": "IC50", "setting": "[4]; [15]", "result": 25.9, "unit": "µM"}, {"measurement": "IC50", "setting": "[4]; [16]", "result": 17.6, "unit": "µM"}, {"measurement": "IC50", "setting": "[4]; [17]", "result": 20.2, "unit": "µM"}, {"measurement": "IC50", "setting": "[5]; [15]", "result": 2.55, "unit": "µM"}, {"measurement": "IC50", "setting": "[5]; [16]", "result": 0.96, "unit": "µM"}, {"measurement": "IC50", "setting": "[5]; [17]", "result": 0.76, "unit": "µM"}, {"measurement": "IC50", "setting": "[6]", "result": 12.7, "unit": "µM"}, {"measurement": "IC50", "setting": "[7]", "result": 11.8, "unit": "µM"}, {"measurement": "IC50", "setting": "[8]", "result": 8.2, "unit": "µM"}, {"measurement": "IC50", "setting": "[9]", "result": 5.9, "unit": "µM"}, {"measurement": "apoptosis / cell cycle effect of treatment", "setting": "[10]", "result": "not affected"}, {"measurement": "apoptosis (SubG1 fraction) compared with cells transfected with vector or wild type FGFR4", "setting": "[11]", "result": "increase in apoptosis; also recorded: increased SubG1 fraction"}, {"measurement": "activated caspase 3 (cells positive, normalized to vector only)", "setting": "[12]", "result": "increased activated caspase 3"}]}
{"smiles": "C[C@H]1c2cccc(O)c2C(=O)C2=C(O)[C@]3(O)C(=O)C(C(N)=O)=C(O)[C@@H](N(C)C)[C@@H]3[C@@H](O)[C@@H]21", "note": "[dox, doxycycline]", "values": [{"measurement": "reduction in growth after prolonged culture", "setting": "[13]", "result": 41, "unit": "%"}]}
{"smiles": "Cc1ccc(NC(=O)c2ccc(CN3CCN(C)CC3)cc2)cc1Nc1nccc(-c2cccnc2)n1", "note": "[imatinib, 4-[(4-methylpiperazin-1-yl)methyl]-N-[4-methyl-3-[(4-pyridin-3-ylpyrimidin-2-yl)amino]-phenyl]-benzamide]", "values": [{"measurement": "sensitivity (relative cell number) of FGFR4 mutants versus wild type FGFR4 or control cells", "setting": "[14]", "result": "more sensitive"}]}
